Data: publication PMC6142817, “New Urea Derivatives Are Effective Anti-senescence Compounds Acting Most Likely via a Cytokinin-Independent Mechanism” (Frontiers in Plant Science, 2018)
Read-outs that look alike come from different tables or passages of the source.

How the values were obtained:
[1] = system: detached Arabidopsis leaves (chlorophyll loss in the dark); experiment: Arabidopsis leaf senescence assay; type: cell-based, Arabidopsis thaliana; settings: for % of the chlorophyll retained: 0.01 μM; for % of the chlorophyll retained / % more of chlorophyll retained than DMSO (negative control): 12 days in the dark; for % more of chlorophyll retained than DMSO (negative control): 1 μM; for times more effective than BA in Arabidopsis leaf senescence assay: compared to the activity of BA in 1 μM
Description: (§1) Amaranthus assay evaluates the induction of betacyanin synthesis in Amaranthus (Amaranthus caudatus var. atropurpurea) cotyledons, which is induced by cytokinins (Bamberger and Mayer, [1960]). The WLSA evaluates the ability of compounds to retard chlorophyll degradation in excised wheat leaves that are kept in the dark. The wheat leaf segments (Triticum aestivum cv. Hereward) were used in all other experiments requiring wheat. Arabidopsis (Arabidopsis thaliana) leaf senescence assay was performed with detached leaves from 30-day-old plants, which were grown in soil in phytotron under standard conditions (Rivero et al., [2014]). Four leaves of a combined weight of 60 mg were placed in a six-well plate and stored in the dark for 12 days at 22°C. The leaves (except the fresh control leaves) floated on water solutions of tested compounds. Fresh control leaves were leaves detached from a plant and immediately used for chlorophyll determination. The duration of the senescence assay of Arabidopsis leaves was prolonged to highlight the difference in chlorophyll content between a negative control and treatments. Arabidopsis leaves were losing chlorophyll more slowly than wheat leaves. Chlorophyll extraction and spectrophotometric determination of its content was done according to Holub et al. ([1998]).

[2] = system: excised wheat leaves (chlorophyll degradation in the dark); experiment: Wheat leaf senescence assay (WLSA); type: cell-based, Triticum aestivum cv. Hereward; settings: for Chlorophyll content (% of the fresh control): 5 days in the dark, DMSO control = 0; for chlorophyll remaining, % of the initial chlorophyll: 21 days after leaf detachment, dark; for IC50: Triticum aestivum, 120 h
Procedure: (§2) Tobacco callus, Amaranthus and Wheat leaf senescence assay (WLSA) were performed as described by Holub et al. ([1998]) including the number of repetitions in each assay. An exception to the published protocols was that the tobacco callus assay was performed in 6-well microtiter plates (with each well containing 3 ml of Murashige Skoog medium into which 0.1 g of callus was added). Each compound was tested at least twice in each assay and in a wider concentration range to obtain concentration-dependent activity curves. IC50 means compound concentration at which chlorophyll degradation is inhibited by 50% and EC50 means half the maximal effective concentration.
as §1

Triticum aestivum roots = experiment: Wheat root elongation assay; type: in vivo; settings: 0.1 μM, 14-day-old plants; control 10.4 cm
Procedure: (§3) Seeds of Triticum aestivum were surface sterilized by washing with 96% ethanol (10 min) and sown in a hydroponic growing system (Araponics, Liege, Belgium) using Hoagland's solution supplemented with either 0.1 μM TDZ, 0.1 μM ASES or 0.01% DMSO (solvent control). The plants were grown in a growth chamber at 25°C with a 16/8 h light period at 130 μM m^−2s^−1. The root lengths of at least 50 plants were measured 2 weeks after the plants had been sown. Seeds of Arabidopsis thaliana (wild-type Col-0) were surface sterilized by the same procedure as seeds of wheat and sown on vertical plates using half-strength Murashige-Skoog medium (supplemented with 0.1% sucrose and 6 g/L phytagel) containing either 0.1 μM TDZ, 0.1 μM ASES or 0.01% DMSO (solvent control). After vernalization (4 days in the dark, 4°C), the plates were transferred into a growth chamber (22°C, 16/8 light/dark, 130 μM m^−2s^−1). Root elongation was scored 2 weeks after the transfer, with measurements from at least 40 plants for each treatment. The whole experiment was repeated twice.

[3] = molecular target: T1, Arabidopsis thaliana cytokinin oxidase/dehydrogenase 2 (AtCKX2) (Arabidopsis thaliana, UniProt Q9FUJ3); experiment: AtCKX2 inhibition assay (PMS/MTT); type: biochemical; settings: PMS/MTT kinetic assay
T1 construct: made in house; host or cells: Saccharomyces cerevisiae strain 23344c ura-, plasmid pYES2-AtCKX2; cell-free growth medium used directly
T1 sequence (Q9FUJ3 23-501): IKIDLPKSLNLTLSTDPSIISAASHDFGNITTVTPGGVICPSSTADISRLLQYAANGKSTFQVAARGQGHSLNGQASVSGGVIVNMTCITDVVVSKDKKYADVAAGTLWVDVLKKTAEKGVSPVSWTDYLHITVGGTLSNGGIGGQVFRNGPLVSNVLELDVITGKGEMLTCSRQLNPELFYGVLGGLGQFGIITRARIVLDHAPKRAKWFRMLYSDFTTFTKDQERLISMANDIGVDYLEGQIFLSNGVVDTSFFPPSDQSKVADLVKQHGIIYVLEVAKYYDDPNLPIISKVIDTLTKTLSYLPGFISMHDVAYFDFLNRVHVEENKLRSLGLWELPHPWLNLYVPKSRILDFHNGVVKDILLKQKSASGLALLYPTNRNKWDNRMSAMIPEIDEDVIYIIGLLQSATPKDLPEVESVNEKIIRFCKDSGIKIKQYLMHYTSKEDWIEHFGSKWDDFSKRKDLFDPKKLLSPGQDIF
Procedure: The method based on the coupled redox reaction of phenazine methosulfate and 3-(4,5-dimethylthiazol-2-yl)-2,5-diphenyltetrazolium bromide resulting in the formation of a formazan dye was used to test the ability of the synthesized compounds to inhibit AtCKX2. The assay was performed as described previously (Frébort et al., [2002]). Cell-free growth medium of Saccharomyces cerevisiae strain 23344c ura- harboring the plasmid pYES2- AtCKX2 was used directly as a source of AtCKX2 (Frébortová et al., [2007]).

[4] = system: Arabidopsis thaliana roots; experiment: Arabidopsis root elongation assay; type: in vivo, Arabidopsis thaliana (wild-type Col-0); settings: 0.1 μM, 14 days; for Arabidopsis root growth (length): control 3.5 cm
Procedure: as §3

ARR5:GUS reporter gene = experiment: Arabidopsis ARR5:GUS reporter gene assay; type: in vivo, Arabidopsis thaliana
Procedure: Transgenic Arabidopsis plants (Arabidopsis thaliana (L.) Heynh. accession Wassilewskija) harboring the GUS reporter gene (gene for β-glucuronidase) fused to 1.6 kb of the ARR5 (PARR5−GUS) gene promoter (D'Agostino et al., [2000]) were kindly provided by professor Thomas Schmülling. The assay was performed according to Romanov et al. ([2002]). β-Glucuronidase (GUS) activity was quantitatively determined by measuring fluorescence of 4-methylumbelliferyl (MU) on a Synergy H4 hybrid reader (Biotek, Winooski, VT) with excitation and emission wavelengths of 365 and 445 nm, respectively. GUS specific activity was determined as nmol MU × mg protein^−1 × h^−1. This was calculated by dividing the relative fluorescence units (obtained per hour) by protein content of the same sample. Protein extraction was done as described by Romanov et al. ([2002]) but its content was determined using a bicinchoninic acid reagent (Smith et al., [1985]). Finally we expressed the GUS activity in samples as a relative percentage, the activity of 1 μM BA being set as 100% activation. The concentration-dependent activity curves and EC50 values (for TDZ, tZ, BA, TD-iP, and TD-tZ) were constructed using Scion image program.

[5] = system: Amaranthus caudatus cotyledon-hypocotyl explants; experiment: Amaranthus bioassay (betacyanin synthesis); type: cell-based, Amaranthus caudatus var. atropurpurea; settings: for EC50: Amaranthus caudatus
Procedure: as §2, §1

SMILES | % of the chlorophyll retained [1] | % more of chlorophyll retained than DMSO (negative control) [1] [%] | times more effective than BA in Arabidopsis leaf senescence assay [1] | Chlorophyll content (% of the fresh control) ([2]; 0.01 μM) | Chlorophyll content (% of the fresh control) ([2]; 0.1 μM) | Chlorophyll content (% of the fresh control) ([2]; 1 μM) | Chlorophyll content (% of the fresh control) ([2]; 10 μM) | chlorophyll remaining, % of the initial chlorophyll ([2]; 10 μM) | Chlorophyll content (% of the fresh control) ([2]; 100 μM) | wheat root length (Triticum aestivum roots) [cm] | Arabidopsis root growth (length) [4] [cm] | further results
COCCNC(=O)Nc1cnns1 [ASES, 1-(2-methoxy-ethyl)-3-1,2,3-thiadiazol-5-yl-urea] | more than 55% | 96 | approximately 100 times | 8 (±4) % | 25 (±7) % | 51 (±8) % | 79 (±8) % | ~50% | 98 (±7) % | 11.0 | 4.2 | IC50 ([2]; detached wheat leaves in the dark, 5 days, concentration at which chlorophyll degradation is inhibited by 50%, read-out: Senescence bioassay (IC50)): 0.95 µM; times more effective than TDZ in WLSA ([2]; ratio of IC50 values): approximately 13 times; inhibition of AtCKX2 [3]: neither ASES nor any of the other synthesized substances inhibited AtCKX2; ARR5:GUS activity, % of BA activity (ARR5:GUS reporter gene; compound at 10 μM, 1 μM BA = 100%): 55–65%; fold lower potency than BA in inducing betacyanin [5]: ~5 fold; fold lower potency than TDZ in inducing betacyanin [5]: approximately 1,000 fold; EC50 ([5]; betacyanin synthesis, N.A. = not active, read-out: Amaranthus bioassay (EC50)): 4 µM
O=C(Nc1ccccc1)Nc1cnns1 [TDZ, 1-phenyl-3-(1,2,3-thiadiazol-5-yl)urea, reference compound] | more than 55% | 85 | approximately 100 times | 8 (±2) % | 18 (±5) % | 34 (±7) % | 50 (±11) % | approximately 15% | 91 (±2) % | 3.2 | 1.7 | IC50 ([2]; read-out: Senescence bioassay (IC50, μM)): 13 µM; reduction of Arabidopsis root growth compared to the control [4]: 50%; EC50 (ARR5:GUS reporter gene; Arabidopsis thaliana, read-out: ARR5:GUS activation EC50): 4 nM; activity in Amaranthus assay, fold exceeding all other cytokinins [5]: at least 100 fold; EC50 ([5]; read-out: Amaranthus bioassay (EC50, μM)): 0.004 µM
